Measurements from patent publication US20030091975A1, “Multiple determinants for metabolic phenotypes” (priority 2001, published 2003).
Marks after values point to notes of the source that are not given here.

What was measured:
Type in all cases: binding, rabbit
Caffeine-Ab = experiment: Competitive antigen ELISA, antibody specificity of caffeine-Ab; conditions: ideal antibody specificity result hypothesized; 0 = no inhibition or no higher than 40% at 5×10^−3 M
Procedure: (§1) BSA, antibodies, Tween™ 20 and horse radish peroxidase are added to buffers and water just prior to use. Urine samples are usually collected four hours after drinking a cup of coffee (instant or brewed with approximately 100 mg of caffeine per cup) and stored at −20° C. as 1-mL aliquots in 1.5-mL microtubes. For the ELISA, the urine samples are diluted with isotonic sodium phosphate buffer, pH 7.5 (310 mosM) to give concentrations of caffeine, 1.7-DMX and 1,7-DMU no higher than 3×10^−6 M in the microtiter plate wells. Wells of the ELISA plate are washed with a Nunc-Immuno wash 12 washer. Sixteen milliliters of a solution of 6.6 μg ml^−1 of isolated IgG antibodies is prepared in a 100 mM sodium carbonate buffer, pH 9.6, and 150 μL of this solution is pipetted in each well of a microtiter plate using a eight channel pipet (Brinkmann Transferpette™-8 50-200 μL) and 200 μL Flex tips from Brinkmann). After coating the wells with antibodies at 4° C. for 20 hours, the wells are washed 3 times with the isotonic sodium phosphate buffer containing 0.05% Tween™ 20 (IPBT) and properly drained by inverting the plate and absorbing the liquid on to a piece of paper towel. Thirty milliliters of a solution of a IPBT solution containing 1% BSA is prepared and 150 μL of this solution is pipetted in each well using a eight channel pipet (Brinkmann Transferpette ™-8 50-200 μL) and 200 μL yellow tips (Sarstedt yellow tips for P200 Gilson Pipetman). After 3 hours at room temperature, the wells are washed 3 times with IPBT solution and drained. Samples of 400 μL for determination of caffeine, 1,7-DMX and 1,7-DMU are prepared in 1.5-mL microtubes using Sarstedt yellow tips and a P200 Gilson Pipetman. Then, 200 μL of each sample are pipetted in duplicate in a Falcon 96-well microtest tissue culture plate according to the pattern shown in FIG. 22, using Sarstedt yellow tips and a P200 Gilson Pipetman. Using an eight channel pipet (Brinkmann Transferpette™-8 50-200 μL) and changing the tips of the eight channel pipet (200μL Flex tips from Brinkmann) at each row, 150 μL of samples are transferred in the corresponding wells of a 96-well ELISA microtiter plate coated with antibodies. After the addition of the samples, the microtiter plates are covered and left standing at room temperature for 2 h. While the plate is left standing the substrate buffer without the hydrogen peroxide and o-phenylenediamine hydrochloride is prepared (25 mM citric acid and 50 mM sodium phosphate dibasic buffer, pH 5.0). The microtiter plate is washed 3 times with the IPBT solution and 3 times with a 0.05% Tween™ 20 solution and drained. Then, 50 μL of hydrogen peroxide and 40 mg of o-phenylenediamine are added to the substrate buffer. One hundred fifty microliters (150 μL) of the substrate buffer solution is then added to each well using a eight channel pipet (Brinkmann Transferpette™-8 50-200 μL) and 200 μL Flex tips (Brinkmann). The microtiter plate is covered and shaken for 25-30 min at room temperature and the enzymatic reaction is stopped by adding 50 μL/well of a 2.5 N HCl solution using an eight channel pipet (Brinkmann Transferpette™-8 50-200 μL) and 200L Flex tips (Brinkmann).

1,7-DMX-Ab = experiment: Competitive antigen ELISA, antibody specificity of 1,7-DMX-Ab; conditions: ideal antibody specificity result hypothesized; 0 = no inhibition or no higher than 40% at 5×10^−3 M
Procedure: as §1

1,7-DMU-Ab = experiment: Competitive antigen ELISA, antibody specificity of 1,7-DMU-Ab; conditions: ideal antibody specificity result hypothesized; 0 = no inhibition or no higher than 40% at 5×10^−3 M
Procedure: as §1

1X-Ab = experiment: Competitive antigen ELISA, cross-reactivity of 1X-Ab; conditions: for % Cross-Reaction 1X-Ab: 0 = absence of inhibition or inhibition no higher than 40% at the highest concentration tested (5×10^−3 M)
Procedure: (§2) Buffers and water without additives are filtered through millipore filters and kept for 1 week. BSA, antibodies, Tween™ 20 and horse radish peroxidase conjugates are added to these buffers and water just prior to use. Urine samples are usually collected 4 hours after drinking a cup of coffee (instant or brewed with approximately 100 mg of caffeine per cup) and stored at −80° C. The urine samples are diluted 10 times with sodium phosphate buffer (620 mosm, pH 7.50) and are subsequently diluted with water to give concentrations of AAMU and 1X no higher than 3×10^−6 M in the ELISA. All the pipettings are done with an eight-channel pipette, except those of the antibody and sample solutions. Starting with the last well, 100 μL of a carbonate buffer (100 mM, pH 9.6) containing 2.5 μg mL-1 antibodies are added to each well. After 90 min. at room temperature, the wells are washed three times with […] of TPB: isotonic sodium phosphate buffer (310 mosm, pH 7.50) containing 0.05% Tween™ 20.
(§3) After the initial wash, unoccupied sites are blocked by incubation for 90 min. at room temperature with 100 μL TBP containing 3% BSA. The wells are washed four times with 100 μL TPB. […] The microplate is gently shaken with an orbital shaker at room temperature for 3-4 hours. The wells are washed three times with 100 μL TPB containing 1% BSA and three times with water containing 0.05% Tween ™ 20. To the washed plate is added 150 μL of a substrate buffer composed of citric acid (25 mM) and sodium phosphate dibasic buffer (50 mM, pH 5.0) containing 0.06% hydrogen peroxide and 0.04% o-phenylenediamine hydrochloride.
(§4) Buffers and water without additives were filtered through millipore filters and kept for 1 week. BSA, antibodies, Tween ™ 20 and horse radish peroxidase conjugates were added to these buffers and water just prior to use. Urine samples were usually collected 4 hours after drinking a cup of coffee (instant or brewed with approximately 100 mg of caffeine per cup) and stored at 80° C. They were diluted 10 times with sodium phosphate buffer (620 mosm, pH 7.50) and were subsequently diluted with water to give concentrations of AAMU and 1X no higher than 3×10^−6 M in the ELISA. All the pipettings were done with an eight-channel pipette, except those of the antibody and sample solutions. Starting with the last well, 100 μL of a carbonate buffer (100 mM, pH 9.6) containing 2.5 μg mL^−1 antibodies was pipetted. After 90 min. at room temperature, the wells were washed three times with 100 μL of TPB: isotonic sodium phosphate buffer (310 mosm, pH 7.50) containing 0.05% Tween™ 20.
(§5) After the initial wash, unoccupied sites were blocked by incubation for 90 min. at room temperature with 100 μL TBP containing 3% BSA. The wells were washed four times with 100 μL TPB. […] The microplate was gently shaken with an orbital shaker at room temperature for 3-4 hours. The wells were washed three times with 100 μL with TPB containing 1% BSA and three times with water containing 0.05% Tween™ 20. To the washed plate was added 150 μL of a substrate buffer composed of citric acid (25 mM) and sodium phosphate dibasic buffer (50 mM, pH 5.0) containing 0.06% hydrogen peroxide and 0.04% o-phenylenediamine hydrochloride. After 20 min. at room temperature with shaking, the reaction was stopped with 50 μL of 2.5 N HCl.
(§6) The cross reactivities of AAMU-Ab and 1X-Ab were tested using a wide variety of caffeine metabolites and structural analogs (Table 5 below).

AAMU-Ab = experiment: Competitive antigen ELISA, cross-reactivity of AAMU-Ab; conditions: for % Cross-Reaction AAMU-Ab: 0 = absence of inhibition or inhibition no higher than 40% at the highest concentration tested (5×10^−3 M)
Procedure: as §2, §3, §4, §5, §6

Row | SMILES | % Cross-reaction Caffeine-Ab (Caffeine-Ab) [%] | % Cross-reaction 1,7-DMX-Ab (1,7-DMX-Ab) | % Cross-reaction 1,7-DMU-Ab (1,7-DMU-Ab) [%] | % Cross-Reaction 1X-Ab (1X-Ab) [%] | % Cross-Reaction AAMU-Ab (AAMU-Ab) [%] | IC50 (AAMU-Ab; read-out: concentration required for 50% inhibition in the competitive antigen ELISA, AAMU-Ab) [µM] | IC50 (1X-Ab; read-out: concentration required for 50% inhibition in the competitive antigen ELISA, 1X-Ab) [µM]
1 | Cn1c(=O)[nH]c2[nH]c(=O)[nH]c(=O)c21 [7-Methyluric acid] | 0 | 0% | 0 | – | – | – | –
2 | O=c1[nH]cnc2nc[nH]c12 [Hypoxanthine] | 0 | 0% | 0 | 0 | 0 | – | –
3 | Cn1c(=O)c2c(ncn2C)n(C)c1=O [1,3,7-Trimethyl Xanthine (Caffeine), 1,3,7-Trimethyl Xanthine] | 100 | 0^a % | 0 | 0 | 0 | – | –
4 | Cn1c(=O)[nH]c2[nH]c(=O)n(C)c2c1=O [1,7-Dimethyluric acid] | 0 | 0% | 100 | 0 | 0 | – | –
5 | CC(=O)Nc1c(N)n(C)c(=O)[nH]c1=O [5-Acetamino-6-amino-1-methyluracil] | 0 | 0% | 0 | 0 | 100 | 1.5 | –
6 | O=c1cc[nH]c(=O)[nH]1 [Uracil] | 0 | 0% | 0 | 0 | 0 | – | –
7 | Cn1c(=O)[nH]c2nc[nH]c2c1=O [1-Methyl Xanthine (1X), 1-Methyl Xanthine] | 0 | 0% | 0 | 100 | 0 | – | 10
8 | CC(=O)Nc1c(N)[nH]c(=O)[nH]c1=O [5-Acetamino-6-amino-uracil] | 0 | 0% | 0 | 0 | 0.6 | – | –
9 | Cn1cnc2[nH]c(=O)[nH]c(=O)c21 [7-Methyl Xanthine] | 0 | 0% | 0 | 0 | 0 | – | –
10 | Cn1c(=O)[nH]c2[nH]c(=O)[nH]c2c1=O [1-Methyluric acid] | 0 | 0% | 0 | 11 | 0 | – | –
11 | Cn1c(=O)c2[nH]c(=O)[nH]c2n(C)c1=O [1,3-Dimethyluric acid] | 0 | 0% | 0 | – | – | – | –
12 | Cn1c(=O)[nH]c2ncn(C)c2c1=O [1,7-Dimethyl Xanthine (Paraxanthine), 1,7-Dimethyl Xanthine] | 0 | 100% | 0 | 0.5 | 0 | – | –
13 | Cn1c(=O)c2c([nH]c(=O)n2C)n(C)c1=O [1,3,7-Trimethyluric acid] | 0 | 0% | 0 | – | – | – | –
14 | Nc1nc2nc[nH]c2c(=O)[nH]1 [Guanine] | 0 | 0% | 0 | 0 | 0 | – | –
15 | Cn1c(=O)[nH]c(=O)c2[nH]c(=O)[nH]c21 [3-Methyluric acid] | 0 | 0% | 0 | – | – | – | –
16 | Cn1c(=O)[nH]c(=O)c2c1[nH]c(=O)n2C [3,7-Dimethyluric acid] | 0 | 0% | 0 | – | – | – | –
